# Test results reported in PMC12703733, “Probing Guanidino Pendant or Bridged Groups in Cyclic Antimicrobial Peptides Derived from Temporin L: A Strategy to Improve Efficacy against Gram-Negative Bacteria” (Journal of Medicinal Chemistry, 2025).
# Bridge positions count the residues as written; N and C are the ends. Square brackets hold non-standard residues; d marks the D form. Peptide text beside a SMILES is read from it.
# What was measured:
# [1] = format: cell-based, human; conditions: human
# Protocol: (§1) For the evaluation of peptides’ cytotoxicity, the human immortalized keratinocytes (HaCaT cells), purchased from AddexBio (San Diego, CA, USA), and BEAS-2B were used. HaCaT cells were cultured in Dulbecco’s modified Eagle’s medium supplemented with 4 mM glutamine (DMEM), 10% heat-inactivated fetal bovine serum (FBS), and 0.1 mg/mL of penicillin and streptomycin, at 37 °C and 5% CO2. BEAS-2B cells were cultured in RPMI, supplemented with 2 mM glutamine (DMEM), 10% heat-inactivated fetal bovine serum (FBS), 1 mM sodium pyruvate, and 0.1 mg/mL of penicillin and streptomycin, at 37 °C and 5% CO2. Cytotoxicity was tested in vitro using a colorimetric assay that relies on the intracellular reduction of the yellow 3-(4,5-dimethylthiazol-2-yl)-2,5-diphenyltetrazolium bromide salt (MTT) by mitochondrial dehydrogenases of metabolically active cells in formazan crystals (purple). About 4 × 10^4 HaCaT and BEAS-2B cells, suspended in DMEM supplemented with 2% FBS, were plated in triplicate wells of a 96-well microtiter plate. The plate was incubated overnight at 37 °C and 5% CO2. Then, the cells were treated with different concentrations of the peptide (from 100 to 3.12 μM) in a fresh serum-free medium for 2 h and for a longer time (24 h). Following peptide treatment, the medium was removed, and MTT (0.5 mg/mL) solution in Hank’s buffer (136 mM NaCl, 4.2 mM Na2HPO4, 4.4 mM KH2PO4, 5.4 mM KCl, 4.1 mM NaHCO3, pH 7.2, supplemented with 20 mM D-glucose) was added to each well of the plate, that was then incubated for 4 h at 37 °C and 5% CO2. The purple formazan crystals were dissolved using acidified 2-propanol and a microplate reader (Infinite M200; Tecan, Salzburg, Austria) was used to measure the absorbance of each well at 570 nm. The percentage of cell viability was calculated compared to the control, which consisted of cells without any peptide treatment (corresponding to 100% viability) and all data represent the mean of three independent experiments ± SEM.
# [2] = test system: human keratinocytes (HaCaT cells); format: cell-based; conditions: human, 24 h
# Protocol: as §1
# circular dichroism = conditions: water; pH ns; 25 °C; 150 uM
# [3] = test system: Gram-positive bacteria tested; assay: MIC panel, Gram-positive strains (geometric mean, range); format: cell-based; conditions: geometric mean of the MICs against Gram-positive bacteria tested
# Protocol: (§2) The antimicrobial efficacy of the TLcyc analogues was assessed against a representative panel of Gram-positive and Gram-negative bacterial strains, by determining their minimal inhibitory concentrations (MIC), as summarized in Table . To provide an integrated measure of antimicrobial potency, we calculated the geometric mean (GM) of MIC values across all strains (GMall), as well as separately for Gram-positive (GMGram+) and Gram-negative (GMGram–) bacteria.
# (§3) Bacterial strains used in this study were the Gram-positive S. aureus ATCC 25923, S. epidermidis ATCC 12228, B. megaterium BM11, S. agalactiae ATCC 27591, E. faecalis ATCC 29212 and the Gram-negative E. coli ATCC 25922, P. aeruginosa ATCC 27853, A. baumannii ATCC 19606, E. coli D21 and P. aeruginosa PAO1. […] Bacterial cells in the mid log phase were diluted in Muller Hinton (MH) at a concentration of 2 × 10^6 cell/mL. Aliquots of 50 μL of this bacterial suspension were added to 50 μL of MH containing serial 2-fold dilutions of the peptides (from 100 to 0.19 μM) in the wells a 96-well plate. Ciprofloxacin was used as antibiotic control. The plate was then incubated at 37 °C. MICs were obtained from three identical readings of four independent experiments.
# B. megaterium BM11 = assay: microbe, parasite or virus in culture; format: cell-based; conditions: BM11
# Protocol: as §3, with “[NT]” for “agalactiae ATCC”, “Aliquots of 50 μL of this bacterial suspension were added to 50 μL of MH containing serial 2-fold dilutions of the peptides (from 100 to 0.19 μM) in the wells a 96-well plate.” left out
# S. agalactiae ATCC 27591 = assay: microbe, parasite or virus in culture; format: cell-based; conditions: ATCC 27591
# Protocol: as §3, with “[NT]” for “agalactiae ATCC”, “Aliquots of 50 μL of this bacterial suspension were added to 50 μL of MH containing serial 2-fold dilutions of the peptides (from 100 to 0.19 μM) in the wells a 96-well plate.” left out
# E. faecalis ATCC 29212 = assay: microbe, parasite or virus in culture; format: cell-based; conditions: ATCC 29212
# Protocol: as §3, with “[NT]” for “agalactiae ATCC”, “Aliquots of 50 μL of this bacterial suspension were added to 50 μL of MH containing serial 2-fold dilutions of the peptides (from 100 to 0.19 μM) in the wells a 96-well plate.” left out
# E. coli D21 = assay: microbe, parasite or virus in culture; format: cell-based; conditions: D21
# Protocol: as §3, with “[NT]” for “agalactiae ATCC”, “Aliquots of 50 μL of this bacterial suspension were added to 50 μL of MH containing serial 2-fold dilutions of the peptides (from 100 to 0.19 μM) in the wells a 96-well plate.” left out
# [4] = test system: S. epidermidis ATCC 12228; assay: microbe, parasite or virus in culture; format: cell-based; conditions: ATCC 12228
# Protocol: as §3, with “[NT]” for “agalactiae ATCC”, “Aliquots of 50 μL of this bacterial suspension were added to 50 μL of MH containing serial 2-fold dilutions of the peptides (from 100 to 0.19 μM) in the wells a 96-well plate.” left out
# P. aeruginosa PAO1 = assay: microbe, parasite or virus in culture; format: cell-based; conditions: PAO1
# Protocol: as §3, with “[NT]” for “agalactiae ATCC”, “Aliquots of 50 μL of this bacterial suspension were added to 50 μL of MH containing serial 2-fold dilutions of the peptides (from 100 to 0.19 μM) in the wells a 96-well plate.” left out
# E. coli ATCC 25922 = assay: microbe, parasite or virus in culture; format: cell-based; conditions: ATCC 25922
# Protocol: as §3, with “[NT]” for “agalactiae ATCC”, “Aliquots of 50 μL of this bacterial suspension were added to 50 μL of MH containing serial 2-fold dilutions of the peptides (from 100 to 0.19 μM) in the wells a 96-well plate.” left out
# A. baumannii ATCC 19606 = assay: microbe, parasite or virus in culture; format: cell-based; conditions: ATCC 19606
# Protocol: as §3, with “[NT]” for “agalactiae ATCC”, “Aliquots of 50 μL of this bacterial suspension were added to 50 μL of MH containing serial 2-fold dilutions of the peptides (from 100 to 0.19 μM) in the wells a 96-well plate.” left out
# S. aureus ATCC 25923 = assay: microbe, parasite or virus in culture; format: cell-based; conditions: ATCC 25923
# Protocol: as §3, with “[NT]” for “agalactiae ATCC”, “Aliquots of 50 μL of this bacterial suspension were added to 50 μL of MH containing serial 2-fold dilutions of the peptides (from 100 to 0.19 μM) in the wells a 96-well plate.” left out
# all bacteria tested = assay: MIC panel, geometric mean over all strains; format: cell-based; conditions: geometric mean of the MICs against all bacteria tested
# Protocol: as §2, §3
# [5] = test system: Gram-negative bacteria tested; assay: MIC panel, Gram-negative strains (geometric mean); format: cell-based; conditions: geometric mean of the MICs against Gram-negative bacteria tested
# Protocol: as §2, §3
# [6] = Circular dichroism in water (BeStSel); format: physicochemical; conditions: predicted from CD spectra in H2O using BeStSel
# Protocol: The secondary structure of each peptide was studied in solution and in small unilamellar vesicles (SUVs) mimicking Gram-positive and Gram-negative membranes performing CD analysis. The CD spectrum for each peptide in solution was recorded at 150 μM, using the quartz cells of 0.1 cm path length with a Jasco J-1500 CD Spectrometer at 25 °C. SUVs at the concentration of 150 μM (P/L = 1) and […] (P/L = 0.4) were prepared as reported: the lipid film was hydrated with water for 1h and then sonicated for 30 min. CD spectra were recorded at the peptide/lipid ratio of 1:1 both in the presence with SUVs mimicking Gram-positive and Gram-negative membranes. CD spectra were recorded at 25 °C on a in a 0.1 cm quartz cell using three consecutive scans from 260 to 190 nm, 3 nm bandwidth, a time constant of 16 s, and a scan rate of 10 nm/min.
# [7] = test system: methicillin-resistant Staphylococcus aureus (MRSA); conditions: MRSA strain; ref Verma et al.; cited from earlier work
compound,measurement,setting,value
"CC[C@H](C)[C@H](NC(=O)[C@H](CCCNC(=N)N)NC(=O)[C@H]1CCC(=O)NCCCC[C@H](NC(=O)[C@H](Cc2ccccc2)NC(=O)[C@H](Cc2c[nH]c3ccccc23)NC(=O)[C@@H]2CCCN2C(=O)[C@@H](NC(=O)[C@@H](N)Cc2ccccc2)C(C)C)C(=O)N[C@@H](CCCNC(=N)N)C(=O)N[C@@H](Cc2ccccc2)C(=O)N[C@H](CC(C)C)C(=O)N1)C(=O)N[C@@H](CC(C)C)C(N)=O [Peptide 9, FVPWF[KRFle]RIL] (H-FVPWFKRF[dL][dE]RIL-NH2; lactam 6-10)",CC50 at 24 h,[1]; CC50,> 50 µM
same,"viability at 2 h, 3.12 µM",[1]; Cell viability (%),106%
same,"viability at 2 h, 6.25 µM",[1]; Cell viability (%),106%
same,"viability at 2 h, 12.5 µM",[1]; Cell viability (%),98%
same,"viability at 2 h, 25 µM",[1]; Cell viability (%),94%
same,"viability at 2 h, 50 µM",[1]; Cell viability (%),74%
same,"viability at 2 h, 100 µM",[1]; Cell viability (%),22%
same,"viability at 24 h, 3.12 µM",[1]; Cell viability (%),115 ± 23%
same,"viability at 24 h, 6.25 µM",[1]; Cell viability (%),109 ± 24%
same,"viability at 24 h, 12.5 µM",[1]; Cell viability (%),112 ± 20%
same,"viability at 24 h, 25 µM",[1]; Cell viability (%),120 ± 13%
same,"viability at 24 h, 50 µM",[1]; Cell viability (%),82 ± 10%
same,"viability at 24 h, 100 µM",[1]; Cell viability (%),4 ± 2%
same,CC50,[2],54.3 µM
same,helicity,circular dichroism,11%
same,geometric mean GMGram+,[3],4.11 µM
same,MIC,B. megaterium BM11,1.56 µM
same,MIC,S. agalactiae ATCC 27591,3.12 µM
same,MIC,E. faecalis ATCC 29212,12.5 µM
same,MIC,E. coli D21,6.25 µM
same,MIC,[4],3.12 µM
same,MIC,P. aeruginosa PAO1,50 µM
same,MIC,E. coli ATCC 25922,6.25 µM
same,MIC,A. baumannii ATCC 19606,3.12 µM
same,MIC,S. aureus ATCC 25923,6.25 µM
same,geometric mean GMall,all bacteria tested,7.67 µM
same,geometric mean GMGram–,[5],14.32 µM
same,Content in water (%) random,[6],53%
same,Content in water (%) α-helix,[6],11%
same,Content in water (%) β-strand,[6],36%
"FVQWFSKFLGRIL [TL, 13-mer linear antimicrobial peptide from Rana temporaria]",MIC,[7],6.25 µM
